Data as given in patent US7253191B2, “2-thio-substituted imidazole derivatives and the use thereof in the pharmaceutical industry” (Merckle GmbH, priority 2001, dated 2007).

Legend:
TNF-α = assay: In vitro test of cytokine release: LPS-stimulated human whole blood / PBMCs, TNFα by ELISA; type: cell-based; details: Table 1; for IC50: LPS (E.coli 026:B6) stimulation 4 hours, table does not say whole blood or PBMCs; for TNF-α, value given in %: concentration not given
Experimental: (§1) They may be administered in one individual dose or in a plurality of doses. The activity spectrum of the compounds as inhibitors of cytokine release was examined using the test systems below, as described by C. Donat and S. Laufer in Arch. Pharm. Pharm. […] 1, 1-40, 2000.
(§2) The reaction is stopped by placing the samples on ice, adding DPBS buffer and then centrifuging at 1000*g for 15 min. The amount of IL-1β and TNFα in the plasma supernatant is then determined by ELISA.
(§3) The cells are washed twice with DPBS buffer, resuspended in macrophage SFM medium and adjusted to a cell count of 1*10^6 cells/ml.
(§4) The reaction is stopped by placing the samples on ice, adding DPBS buffer and then centrifuging at 15 880*g for 12 min. The amount of IL-1β and TNFα in the plasma supernatant is then determined by ELISA.

IL-1β = assay: In vitro test of cytokine release: LPS-stimulated human whole blood / PBMCs, IL-1β by ELISA; type: cell-based; details: Table 1; for IC50: LPS (E.coli 026:B6) stimulation 4 hours, table does not say whole blood or PBMCs
Experimental: as §1, §2, §3, §4

IC50 (IL-1β)	Compound	IC50 (TNF-α)	also measured
1.8 µM	1-Dimethylaminophenyl-4-(4-fluorophenyl)-5-(4-pyridyl)-2-thioimidazole [Example 9]	15 µM	–
1.3 µM	CCn1c(-c2ccncc2)c(-c2ccc(F)cc2)[nH]c1=S [Example 2, 1-Ethyl-4-(4-fluorophenyl)-5-(4-pyridyl)-2-thioimidazole]	41 µM	–
2.4 µM	CCCn1c(-c2ccncc2)c(-c2ccc(F)cc2)[nH]c1=S [Example 3, 4-(4-Fluorophenyl)-1-n-propyl-5-(4-pyridyl)-2-thioimidazole]	32 µM	–
2.2 µM	CC(C)n1c(-c2ccncc2)c(-c2ccc(F)cc2)[nH]c1=S [Example 4]	–	TNF-α, value given in % (TNF-α): 46%
5.4 µM	Fc1ccc(-c2[nH]c(=S)n(C3CCCCC3)c2-c2ccncc2)cc1 [Example 5, 1-Cyclohexyl-4-(4-fluorophenyl)-5-(4-pyridyl)-2-thioimidazole]	33 µM	–
2.3 µM	Fc1ccc(-c2[nH]c(=S)n(-c3ccccc3)c2-c2ccncc2)cc1 [Example 7, 4-(4-Fluorophenyl)-1-phenyl-5-(4-pyridyl)-2-thioimidazole]	37 µM	–
1 µM	Fc1ccc(-c2[nH]c(=S)n(Cc3ccccc3)c2-c2ccncc2)cc1 [Example 8, 1-Benzyl-4-(4-fluorophenyl)-5-(4-pyridyl)-2-thioimidazole]	20 µM	–
8 µM	Fc1ccc(-c2[nH]c(=S)n(-c3cccnc3)c2-c2ccncc2)cc1 [Example 10, 4-(4-Fluorophenyl)-1-(3-pyridyl)-5-(4-pyridyl)-2-thioimidazole]	–	TNF-α, value given in % (TNF-α): 42%
12 µM	CN(C)CCn1c(-c2ccncc2)c(-c2ccc(F)cc2)[nH]c1=S [Example 11, 1-Dimethylaminoethyl-4-(4-fluorophenyl)-5-(4-pyridyl)-2-thioimidazole]	–	TNF-α, value given in % (TNF-α): 19%
1.6 µM	CC1(C)CC(n2c(-c3ccncc3)c(-c3ccc(F)cc3)[nH]c2=S)CC(C)(C)N1 [Example 12, 4-(4-Fluorophenyl)-5-(4-pyridyl)-1-(2,2,6,6-tetramethylpiperidin-4-yl)-2-thioimidazole]	45 µM	–
18 µM	Fc1ccc(-c2[nH]c(=S)n(CCCN3CCOCC3)c2-c2ccncc2)cc1 [Example 14, 4-(4-Fluorophenyl)-1-(3-N-morpholinopropyl)-5-(4-pyridyl)-2-thioimidazole]	100 µM	–
–	Fc1ccc(-c2[nH]c(=S)n(CCN3CCOCC3)c2-c2ccncc2)cc1 [Example 16, 4-(4-Fluorophenyl)-1-N-morpholinoethyl-5-(4-pyridyl)-2-thioimidazole]	–	TNF-α, value given in % (TNF-α): 34%; IL-1β, value given in % (IL-1β; concentration not given): 44%
7.3 µM	OCCCn1c(-c2ccncc2)c(-c2ccc(F)cc2)[nH]c1=S [Example 17, 4-(4-Fluorophenyl)-1-(3-hydroxypronyl)-5-(4-pyridyl)-2-thioimidazole]	–	TNF-α, value given in % (TNF-α): 49%
5.8 µM	Fc1ccc(-c2[nH]c(=S)n(C3CCN(Cc4ccccc4)CC3)c2-c2ccncc2)cc1 [Example 18]	38 µM	–
0.45 µM	CSc1nc(-c2ccc(F)cc2)c(-c2ccncc2)n1C [Example 20]	2.5 µM	–
–	CCCn1c(SC)nc(-c2ccc(F)cc2)c1-c1ccncc1 [Example 21, 4-(4-Fluorophenyl)-2-methylthio-1-n-propyl-5-(4-pyridyl)imidazole]	–	IC50 (TNF-α; Homo sapiens): 1.3 µM; IC50 (IL-1β; Homo sapiens): 0.36 µM
–	CSc1nc(-c2ccc(F)cc2)c(-c2ccncc2)n1C1CC1 [Example 22, 1-Cyclopropyl-4-(4-fluorophenyl)-2-methylthio-5-(4-pyridyl)imidazole]	–	IC50 (TNF-α; Homo sapiens): 1.1 µM; IC50 (IL-1β; Homo sapiens): 0.34 µM
–	CSc1nc(-c2ccc(F)cc2)c(-c2ccncc2)n1CCCN1CCOCC1 [Example 24, 4-(4-Fluorophenyl)-2-methylthio-1-N-morpholinopropyl-5-(4-pyridyl)-imidazole]	–	IC50 (TNF-α; Homo sapiens): 2.7 µM; IC50 (IL-1β; Homo sapiens): 1 µM
–	CSc1nc(-c2ccc(F)cc2)c(-c2ccncc2)n1C1CC(C)(C)NC(C)(C)C1 [Example 25, 4-(4-Fluorophenyl)-2-methylthio-5-(4-pyridyl)-1-(2,2,6,6-tetramethyl-piperidin-4-yl)imidazole]	–	IC50 (TNF-α; Homo sapiens): 16 µM; IC50 (IL-1β; Homo sapiens): 0.85 µM
–	CCCn1c(SCc2ccccc2)nc(-c2ccc(F)cc2)c1-c1ccncc1 [Example 28, 2-Benzylthio-4-(4-fluorophenyl)-1-n-propyl-5-(4-pyridyl)imidazole]	–	IC50 (TNF-α; Homo sapiens): 29 µM; IC50 (IL-1β; Homo sapiens): 0.65 µM
–	CCCn1c(SCc2ccc(Cl)cc2)nc(-c2ccc(F)cc2)c1-c1ccncc1 [Example 29, 2-(4-Chlorobenzyl)thio-4-(4-fluorophenyl)-1-n-propyl-5-(4-pyridyl)-imidazole]	–	IC50 (TNF-α; Homo sapiens): 62 µM; IC50 (IL-1β; Homo sapiens): 1.3 µM
–	CCCn1c(SCc2ccc(C)cc2)nc(-c2ccc(F)cc2)c1-c1ccncc1 [Example 30, 4-(4-Fluorophenyl)-2-(4-methylbenzyl)thio-1-n-propyl-5-(4-pyridyl)-imidazole]	–	IC50 (TNF-α; Homo sapiens): 22 µM; IC50 (IL-1β; Homo sapiens): 1.3 µM
–	CC(C)n1c(SCc2ccc(Cl)cc2)nc(-c2ccc(F)cc2)c1-c1ccncc1 [Example 34, 2-(4-Chlorobenzyl)thio-4-(4-fluorophenyl)-1-isopropyl-5-(4-pyridyl)-imidazole]	–	IC50 (TNF-α; Homo sapiens): 53 µM; IC50 (IL-1β; Homo sapiens): 5.3 µM
–	Fc1ccc(-c2nc(SCc3ccccc3)n(CCN3CCOCC3)c2-c2ccncc2)cc1 [Example 42, 2-Benzylthio-4-(4-fluorophenyl)-1-N-morpholinoethyl-5-(4-pyridyl)-imidazole]	–	IC50 (TNF-α; Homo sapiens): 11 µM; IC50 (IL-1β; Homo sapiens): 1.3 µM
–	CC1(C)CC(n2cc(-c3ccc(F)cc3)nc2SCc2ccccc2)CC(C)(C)N1 [Example 46, 2-Benzylthio-4-(4-fluorophenyl)-1-(2,2,6,6-tetramethylpiperidin-4-yl)-imidazole]	–	IC50 (TNF-α; Homo sapiens): 12 µM; IC50 (IL-1β; Homo sapiens): 0.87 µM
–	Cn1c(S/C=C\c2ccccc2)nc(-c2ccc(F)cc2)c1-c1ccncc1 [Example 48, 1-cis-Phenylethenylthio-4-(4-fluorophenyl)-1-methyl-5-(4-pyridyl)-imidazole]	–	IC50 (TNF-α; Homo sapiens): 22 µM; IC50 (IL-1β; Homo sapiens): 1.7 µM

Compound	IC50 (IL-1β)	IC50 (TNF-α)	also measured
4-(4-Fluorophenyl)-2-(4-methylsulfonyl)benzylthio-1-N-morpholinoethyl-5-(4-pyridyl)imidazole [Example 44]	1.4 µM	12 µM	–
Cn1c(S)nc(-c2ccc(F)cc2)c1-c1ccncc1 [Example 1, 4-(4-fluorophenyl)-1-methyl-5-(4-pyridyl)-2-thioimidazole]	3.6 µM	19 µM	–
CCn1c(SCc2ccc(S(C)(=O)=O)cc2)nc(-c2ccc(F)cc2)c1-c1ccncc1 [Example 27, 1-Ethyl-4-(4-fluorophenyl)-2-(4-methylsulfonyl)benzylthio-5-(4-pyridyl)-imidazole]	0.95 µM	4.1 µM	–
CCCn1c(SCc2ccc(SC)cc2)nc(-c2ccc(F)cc2)c1-c1ccncc1 [Example 31, 4-(4-Fluorophenyl)-2-(4-methylthio)benzylthio-1-n-propyl-5-(4-pyridyl)-imidazole]	4.7 µM	–	TNF-α, value given in % (TNF-α): 35%
CCCn1c(SCc2ccc([S+](C)[O-])cc2)nc(-c2ccc(F)cc2)c1-c1ccncc1 (stereo not drawn) [Example 32, 4-(4-Fluorophenyl)-2-(4-methylsulfinyl)benzylthio-1-n-propyl-5-(4-pyridyl)imidazole]	1.6 µM	24 µM	–
CCCn1c(SCc2ccc(S(C)(=O)=O)cc2)nc(-c2ccc(F)cc2)c1-c1ccncc1 [Example 33, 4-(4-Fluorophenyl)-2-(4-methylsulfonyl)benzylthio-1-n-propyl-5-(4-pyridyl)imidazole]	0.72 µM	6.8 µM	–
CC(C)n1c(SCc2ccc(S(C)(=O)=O)cc2)nc(-c2ccc(F)cc2)c1-c1ccncc1 [Example 35, 4-(4-Fluorophenyl)-2-(4-methylsulfonyl)benzylthio-1-isopropyl-5-(4-pyridyl)imidazole]	1.5 µM	2.7 µM	–
CS(=O)(=O)c1ccc(CSc2nc(-c3ccc(F)cc3)c(-c3ccncc3)n2C2CCCCC2)cc1 [Example 39, 1-Cyclohexyl-4-(4-fluorophenyl)-2-(4-methylsulfonyl)benzylthio-5-(4-pyridyl)imidazole]	1.8 µM	13 µM	–
CS(=O)(=O)c1ccc(CSc2nc(-c3ccc(F)cc3)c(-c3ccncc3)n2-c2ccccc2)cc1 [Example 40, 4-(4-Fluorophenyl)-2-(4-methylsulfonyl)benzylthio-1-phenyl-5-(4-pyridyl)imidazole]	1.3 µM	3.4 µM	–
CS(=O)(=O)c1ccc(CSc2nc(-c3ccc(F)cc3)c(-c3ccncc3)n2Cc2ccccc2)cc1 [Example 41, 1-Benzyl-4-(4-fluorophenyl)-2-(4-methylsulfonyl)benzylthio-5-(4-pyridyl)-imidazole]	0.36 µM	1 µM	–
Fc1ccc(-c2nc(SCc3ccccc3)n(CCCN3CCOCC3)c2-c2ccncc2)cc1 [Example 43]	0.89 µM	5.4 µM	–
C[S+]([O-])c1ccc(CSc2nc(-c3ccc(F)cc3)c(-c3ccncc3)n2CCN2CCOCC2)cc1 (stereo not drawn) [Example 45, 4-(4-Fluorophenyl)-2-(4-methylsulfinyl)benzylthio-1-N-morpholinoethyl-5-(4-pyridyl)imidazole]	2.4 µM	12 µM	–
Cn1c(SCCN2CCOCC2)nc(-c2ccc(F)cc2)c1-c1ccncc1 [Example 47]	1.7 µM	28 µM	–
